Source: US20210115104A1, “AMYLIN ANALOGUES” (Zealand Pharma A/S, priority 2015, published 2021)
*1 amine or outer side, *2 acyl side, *3 side chain or, on linkers, in order; H or OH if unused. Where a SMILES comes first, the peptide text is derived from it. Bridges are numbered along the chain shown (N, C = ends). [ ]: non-standard residue; d: D form. The star is where a group is joined. C20 diacid = O=C(O)CCCCCCCCCCCCCCCCCCC(=O)*; γGlu = O=C(O)[C@H](CCC(=O)[*:2])N[*:1]; Hyp = O=C(O)[C@@H]1C[C@@H](O)CN1; NMeI = CC[C@H](C)[C@H](NC)C(=O)O; Aad = N[C@@H](CCCC(=O)O)C(=O)O; Orn = NCCC[C@H](N)C(=O)O; Sar = CNCC(=O)O

Assays:
[1] = Assessment of physical stability (Thioflavin T fibrillation); type: physicochemical; design: key: FND = fibrillation not detected; FD = fibrillation detected; settings: 1 mg/ml, 40° C., ThT; for Fibrillation pH 4.0 (Ac): 50 mM acetate buffer pH 4.0, 96 hours; for Fibrillation pH 7.0 (His): 50 mM histidine buffer pH 7.0, 96 hours; for Fibrillation pH 7.0 (Phos.): 50 mM phosphate buffer pH 7.0, 96 hours
Method in brief: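 1 mg/ml peptide with 40 μM ThT in 50 mM phosphate pH 7.0, 50 mM histidine pH 7.0 or 50 mM acetate pH 4.0, in triplicate. Fluorescence read every 10 min after 300 s agitation over 96 h at 40 °C. Lag-time (h) is the intersection of linear fits to stable and growth phases.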

[2] = Assessment of chemical stability (RP-HPLC normalized purity); type: physicochemical; settings: 7 days, 40° C., Table 1; for Normalized purity after 7 days, 40° C., pH 4: pH 4, 0.2 mg/ml; for Normalized purity after 7 days, 40° C., pH 6: pH 6, 0.2 mg/ml; for Normalized purity after 7 days, 40° C., pH 7.5: pH 7.5, 0.2 mg/ml; for Normalized purity after 7 days, 40° C., pH 9: pH 9, 0.2 mg/ml
Method in brief: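 Peptides at 0.2 mg/ml in water adjusted to pH 4, 6, 7.5 or 9, incubated at 40° C for 7 days. Main-peak area-% by RP-HPLC (C8 ammonium formate or C18 TFA gradient, UV 220 nm), normalized to T=0 as 100.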

[3] = biological target: T1, human amylin receptor 3 (hAMYR3), hCTR2 co-expressed with hRAMP3 (Homo sapiens, UniProt O60896+P30988); assay: hAMYR3 cAMP assay (AlphaScreen) in COS7 cells; type: cell-based; settings: cAMP induction, COS7 cells expressing hAMYR3; Table 1; read-out: hAMYR3 EC50
T1 construct: expressed in transfected cells
T1 sequence (P30988 25-474): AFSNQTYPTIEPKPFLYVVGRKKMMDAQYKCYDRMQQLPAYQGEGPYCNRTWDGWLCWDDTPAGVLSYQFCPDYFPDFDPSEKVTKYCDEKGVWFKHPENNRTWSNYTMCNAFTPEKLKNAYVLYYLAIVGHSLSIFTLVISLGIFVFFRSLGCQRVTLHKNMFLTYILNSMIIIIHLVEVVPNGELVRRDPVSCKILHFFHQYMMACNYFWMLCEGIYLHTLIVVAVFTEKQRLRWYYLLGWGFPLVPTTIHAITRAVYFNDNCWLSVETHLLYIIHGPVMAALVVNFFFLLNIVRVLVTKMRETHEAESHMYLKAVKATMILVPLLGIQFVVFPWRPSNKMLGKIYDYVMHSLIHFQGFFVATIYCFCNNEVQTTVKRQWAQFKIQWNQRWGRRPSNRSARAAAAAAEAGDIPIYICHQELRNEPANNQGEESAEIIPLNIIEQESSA
T1 sequence (O60896 24-148 partner): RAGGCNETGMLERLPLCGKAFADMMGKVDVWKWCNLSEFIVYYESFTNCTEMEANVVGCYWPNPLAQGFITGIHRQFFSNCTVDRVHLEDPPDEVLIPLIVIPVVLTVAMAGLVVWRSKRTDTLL
Method in brief: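 Stable COS7 clone co-expressing hCTR2 and hRAMP3 was exposed to increasing peptide concentrations in Tyrode buffer (pH 7.4) with 100 µM IBMX and 0.1% casein for 15 min at 37 °C. Lysate cAMP was measured by AlphaScreen; EC50 came from 4-parameter logistic fitting.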

[4] = biological target: T2, human calcitonin receptor (hCTR2) (Homo sapiens, UniProt P30988); assay: hCTR2 cAMP assay (AlphaScreen) in COS7 cells; type: cell-based; settings: cAMP induction, COS7 cells expressing hCTR2; Table 1; read-out: hCTR2 EC50
T2 construct: expressed in transfected cells
T2 sequence (P30988 25-474): T1 sequence (P30988 25-474)
Method in brief: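 Stable hCTR2 clone in RAMP-naïve COS7 cells stimulated 15 min at 37 °C with increasing peptide concentrations in Tyrode buffer pH 7.4 containing IBMX and 0.1% casein. cAMP in lysates measured by AlphaScreen; EC50 from 4-parameter logistic fit.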

SMILES | Fibrillation pH 4.0 (Ac) [1] | Fibrillation pH 7.0 (His) [1] | Fibrillation pH 7.0 (Phos.) [1] | Normalized purity after 7 days, 40° C., pH 4 [2] | Normalized purity after 7 days, 40° C., pH 6 [2] | Normalized purity after 7 days, 40° C., pH 7.5 [2] | Normalized purity after 7 days, 40° C., pH 9 [2] | EC50 [3] | EC50 [4]
CC[C@H](C)[C@@H](C(=O)N[C@@H](CC(C)C)C(=O)N[C@@H](CO)C(=O)N[C@@H](CO)C(=O)N[C@H](C(=O)N[C@@H](CCC(=O)O)C(=O)N[C@H](C(=O)NCC(=O)N[C@@H](CO)C(=O)N[C@@H](CCCN)C(=O)N[C@H](C(=O)N1C[C@H](O)C[C@H]1C(N)=O)[C@@H](C)O)C(C)C)[C@@H](C)O)N(C)C(=O)[C@H](C)NC(=O)CN(C)C(=O)[C@H](Cc1ccccc1)NC(=O)[C@H](CO)NC(=O)[C@H](CO)NC(=O)[C@H](CCCNC(=N)N)NC(=O)[C@H](CCC(N)=O)NC(=O)[C@H](CC(C)C)NC(=O)[C@H](Cc1ccccc1)NC(=O)[C@H](Cc1c[nH]cn1)NC(=O)[C@H](C)NC(=O)[C@H](CC(C)C)NC(=O)[C@H](CCCNC(=N)N)NC(=O)[C@H](CCC(=O)O)NC(=O)[C@@H](NC(=O)[C@H](C)NC(=O)[C@@H]1CSSC[C@H](NC(=O)[C@H](CCCNC(=N)N)NC(=O)CC[C@H](NC(=O)CCCCCCCCCCCCCCCCCCC(=O)O)C(=O)O)C(=O)NCC(=O)N[C@@H]([C@@H](C)O)C(=O)N[C@@H](C)C(=O)N[C@@H]([C@@H](C)O)C(=O)N1)[C@@H](C)O [Compound 51, [19CD]-isoGlu-R-C( )-GTAT-C( )-ATERLAHFLQRSSF-Gly(Me)-A-Ile(Me)-LSSTEVGS-Orn-T-Hyp-NH2] ({C20 diacid-γGlu}-RCGTATCATERLAHFLQRSSF[Sar]A[NMeI]LSSTEVGS[Orn]T[Hyp]-NH2; disulfide 2-7) | FND | FND | FND | A (A = >90%) | B (B = 70-90%) | B (B = 70-90%) | B (B = 70-90%) | 0.11 nM | 0.08 nM
CC[C@H](C)[C@@H](C(=O)N[C@@H](CC(C)C)C(=O)N[C@@H](CO)C(=O)N[C@@H](CO)C(=O)N[C@H](C(=O)N[C@@H](CCC(=O)O)C(=O)N[C@H](C(=O)NCC(=O)N[C@@H](CO)C(=O)NCC(=O)N[C@H](C(=O)N1C[C@H](O)C[C@H]1C(N)=O)[C@@H](C)O)C(C)C)[C@@H](C)O)N(C)C(=O)[C@H](C)NC(=O)CN(C)C(=O)[C@H](Cc1ccccc1)NC(=O)[C@H](CO)NC(=O)[C@H](CO)NC(=O)[C@H](CCCNC(=N)N)NC(=O)[C@H](CCC(N)=O)NC(=O)[C@H](CC(C)C)NC(=O)[C@H](Cc1ccccc1)NC(=O)[C@H](Cc1c[nH]cn1)NC(=O)[C@H](C)NC(=O)[C@H](CC(C)C)NC(=O)[C@H](CCCNC(=N)N)NC(=O)[C@H](CCC(=O)O)NC(=O)[C@@H](NC(=O)[C@H](C)NC(=O)[C@@H]1CSSC[C@H](NC(=O)[C@H](CCCNC(=N)N)NC(=O)CC[C@H](NC(=O)CCCCCCCCCCCCCCCCCCC(=O)O)C(=O)O)C(=O)NCC(=O)N[C@@H]([C@@H](C)O)C(=O)N[C@@H](C)C(=O)N[C@@H]([C@@H](C)O)C(=O)N1)[C@@H](C)O [Compound 52, [19CD]-isoGlu-R-C( )-GTAT-C( )-ATERLAHFLQRSSF-Gly(Me)-A-Ile(Me)-LSSTEVGSGT-Hyp-NH2] ({C20 diacid-γGlu}-RCGTATCATERLAHFLQRSSF[Sar]A[NMeI]LSSTEVGSGT[Hyp]-NH2; disulfide 2-7) | FND | FND | FND | A (A = >90%) | B (B = 70-90%) | B (B = 70-90%) | B (B = 70-90%) | 0.09 nM | 0.07 nM
CC[C@H](C)[C@@H](C(=O)N[C@@H](CC(C)C)C(=O)N[C@@H](CO)C(=O)N[C@@H](CO)C(=O)N[C@H](C(=O)N[C@@H](CCC(=O)O)C(=O)N[C@H](C(=O)NCC(=O)N[C@@H](CO)C(=O)N[C@@H](CCCC(=O)O)C(=O)N[C@H](C(=O)N1C[C@H](O)C[C@H]1C(N)=O)[C@@H](C)O)C(C)C)[C@@H](C)O)N(C)C(=O)[C@H](C)NC(=O)CN(C)C(=O)[C@H](Cc1ccccc1)NC(=O)[C@H](CO)NC(=O)[C@H](CO)NC(=O)[C@H](CCCNC(=N)N)NC(=O)[C@H](CCC(N)=O)NC(=O)[C@H](CC(C)C)NC(=O)[C@H](Cc1ccccc1)NC(=O)[C@H](Cc1c[nH]cn1)NC(=O)[C@H](C)NC(=O)[C@H](CC(C)C)NC(=O)[C@H](CCCNC(=N)N)NC(=O)[C@H](CCC(=O)O)NC(=O)[C@@H](NC(=O)[C@H](C)NC(=O)[C@@H]1CSSC[C@H](NC(=O)[C@H](CCCNC(=N)N)NC(=O)CC[C@H](NC(=O)CCCCCCCCCCCCCCCCCCC(=O)O)C(=O)O)C(=O)NCC(=O)N[C@@H]([C@@H](C)O)C(=O)N[C@@H](C)C(=O)N[C@@H]([C@@H](C)O)C(=O)N1)[C@@H](C)O [Compound 53, [19CD]-isoGlu-R-C( )-GTAT-C( )-ATERLAHFLQRSSF-Gly(Me)-A-Ile(Me)-LSSTEVGS-Aad-T-Hyp-NH2] ({C20 diacid-γGlu}-RCGTATCATERLAHFLQRSSF[Sar]A[NMeI]LSSTEVGS[Aad]T[Hyp]-NH2; disulfide 2-7) | FND | FND | FND | A (A = >90%) | A (A = >90%) | B (B = 70-90%) | B (B = 70-90%) | 0.13 nM | 0.14 nM
CC[C@H](C)[C@@H](C(=O)N[C@@H](CC(C)C)C(=O)N[C@@H](CO)C(=O)N[C@@H](CO)C(=O)N[C@H](C(=O)N[C@@H](CCC(=O)O)C(=O)N[C@H](C(=O)NCC(=O)N[C@@H](CO)C(=O)N[C@@H](CC(N)=O)C(=O)N[C@H](C(=O)N1C[C@H](O)C[C@H]1C(N)=O)[C@@H](C)O)C(C)C)[C@@H](C)O)N(C)C(=O)[C@H](C)NC(=O)CN(C)C(=O)[C@H](Cc1ccccc1)NC(=O)[C@H](CO)NC(=O)[C@H](CO)NC(=O)[C@H](CCCNC(=N)N)NC(=O)[C@H](CCC(N)=O)NC(=O)[C@H](CC(C)C)NC(=O)[C@H](Cc1ccccc1)NC(=O)[C@H](CC(=O)O)NC(=O)[C@H](C)NC(=O)[C@H](CC(C)C)NC(=O)[C@H](CCCNC(=N)N)NC(=O)[C@H](CCC(=O)O)NC(=O)[C@@H](NC(=O)[C@H](C)NC(=O)[C@@H]1CSSC[C@H](NC(=O)[C@H](CCCNC(=N)N)NC(=O)CC[C@H](NC(=O)CCCCCCCCCCCCCCCCCCC(=O)O)C(=O)O)C(=O)NCC(=O)N[C@@H]([C@@H](C)O)C(=O)N[C@@H](C)C(=O)N[C@@H]([C@@H](C)O)C(=O)N1)[C@@H](C)O [Compound 54, [19CD]-isoGlu-R-C( )-GTAT-C( )-ATERLADFLQRSSF-Gly(Me)-A-Ile(Me)-LSSTEVGSNT-Hyp-NH2] ({C20 diacid-γGlu}-RCGTATCATERLADFLQRSSF[Sar]A[NMeI]LSSTEVGSNT[Hyp]-NH2; disulfide 2-7) | FND | FND | FND | A (A = >90%) | A (A = >90%) | B (B = 70-90%) | B (B = 70-90%) | 0.14 nM | 0.08 nM
